Source: patent publication US6737383B1, “Herbicidal oxadiazolidines” (priority 1999, dated 2004)

Columns and labels:
sugar beet = experiment: Test B pre/postemergence sugar beet; format: in vivo, Beta vulgaris; conditions: for Sugarbeets plant response rating: scale of 0 to 10 where 0 is no effect and 10 is complete control
In short: (§1)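 Test chemicals in a non-phytotoxic solvent mixture with surfactant were sprayed preemergence onto planted seeds and postemergence onto plants 2 to 18 cm tall (1- to 4-leaf stage). After twelve to sixteen days in a greenhouse, injury was visually rated against untreated controls from 0 (no effect) to 10 (complete control).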

morningglory = experiment: Test B pre/postemergence morningglory; format: in vivo, Ipomoea hederacea; conditions: for Morningglory plant response rating: scale of 0 to 10 where 0 is no effect and 10 is complete control
In short: as §1

corn = experiment: Test B pre/postemergence corn; format: in vivo, Zea mays; conditions: for Corn plant response rating: scale of 0 to 10 where 0 is no effect and 10 is complete control
In short: as §1

surinam grass = experiment: Test B pre/postemergence surinam grass; format: in vivo, Brachiaria decumbens; conditions: for B. signalgrass plant response rating: scale of 0 to 10 where 0 is no effect and 10 is complete control
In short: as §1

giant foxtail = experiment: Test B pre/postemergence giant foxtail; format: in vivo, Setaria faberii; conditions: for Giant foxtail plant response rating: scale of 0 to 10 where 0 is no effect and 10 is complete control
In short: as §1

cocklebur = experiment: Test B pre/postemergence cocklebur; format: in vivo, Xanthium strumarium; conditions: for Cocklebur plant response rating: scale of 0 to 10 where 0 is no effect and 10 is complete control
In short: as §1

rape = experiment: Test B pre/postemergence rape; format: in vivo, Brassica napus; conditions: for Rape plant response rating: scale of 0 to 10 where 0 is no effect and 10 is complete control
In short: as §1

crabgrass = experiment: Test B pre/postemergence crabgrass; format: in vivo, Digitaria sanguinalis; conditions: for Crabgrass plant response rating: scale of 0 to 10 where 0 is no effect and 10 is complete control
In short: as §1

wild oat = experiment: Test B pre/postemergence wild oat; format: in vivo, Avena fatua; conditions: for Wild oats plant response rating: scale of 0 to 10 where 0 is no effect and 10 is complete control
In short: as §1

duck salad = experiment: Test B flood test duck salad; format: in vivo, Heteranthera limosa
In short: (§2)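 Flood test on plants grown to the 2-leaf stage; treated plants kept in greenhouse twelve to sixteen days, then visually rated against controls on a 0 (no effect) to 10 (complete control) scale.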

bamyardgrass = experiment: Test B flood test barnyardgrass; format: in vivo, Echinochloa crus-galli
In short: as §2

blackgrass = experiment: Test B pre/postemergence blackgrass; format: in vivo, Alopecurus myosuroides; conditions: for Blackgrass plant response rating: scale of 0 to 10 where 0 is no effect and 10 is complete control
In short: as §1

pigweed = experiment: Test B pre/postemergence pigweed; format: in vivo, Amaranthus retroflexus; conditions: for Redroot pigweed plant response rating: scale of 0 to 10 where 0 is no effect and 10 is complete control
In short: as §1

soybean = experiment: Test B pre/postemergence soybean; format: in vivo, Glycine max; conditions: for Soybean plant response rating: scale of 0 to 10 where 0 is no effect and 10 is complete control
In short: as §1

rice = experiment: Test B flood test rice; format: in vivo, Oryza sativa
In short: as §2

velvetleaf = experiment: Test B pre/postemergence velvetleaf; format: in vivo, Abutilon theophrasti; conditions: for Velvetleaf plant response rating: scale of 0 to 10 where 0 is no effect and 10 is complete control
In short: as §1

[1] = Postemergence, Rate 125 g/ha, scale 0 to 10, 0 is no effect, 10 is complete control
[2] = Postemergence, Rate 250 g/ha, scale 0 to 10, 0 is no effect, 10 is complete control
[3] = Preemergence, Rate 62 g/ha, scale 0 to 10 (0 no effect, 10 complete control)
[4] = Rate 500 g/ha, Postemergence, scale 0 to 10, 0 no effect, 10 complete control
[5] = Rate 62 g/ha, flood test species, Pre-emergence, visual evaluation after twelve to sixteen days
[6] = Rate 125 g/ha, under heading Pre-emergence, flood test species, visual evaluation after twelve to sixteen days
[7] = Rate 250 g/ha, Pre-emergence, flood-test species, scale 0 to 10, 0 is no effect, 10 is complete control
[8] = Rate 500 g/ha, Pre-emergence, flood test species, scale 0 to 10 (0 no effect, 10 complete control)

Cc1nnsc1Cn1c(=O)on(C(=O)N(c2ccc(F)cc2)C(C)C)c1=O [Compound 380]
Plant response rating, Sugarbeets (sugar beet; [1]): 0
Plant response rating, Sugarbeets (sugar beet; [2]): 0
Plant response rating, Sugarbeets (sugar beet; [3]): 0
Sugarbeets plant response rating (0 to 10 scale) (sugar beet; Preemergence, Rate 125 g/ha): 0
Sugarbeets plant response rating (sugar beet; Preemergence, Rate 250 g/ha): 0
Sugarbeets plant response rating (sugar beet; Preemergence, Rate 500 g/ha): 0
Sugarbeets plant response rating (sugar beet; Rate 62 g/ha, Postemergence): 0
Plant response rating, Sugarbeets (sugar beet; [4]): 0
Plant response rating, Morningglory (morningglory; [1]): 5
Plant response rating, Morningglory (morningglory; [2]): 5
Plant response rating, Morningglory (morningglory; [3]): 0
Morningglory plant response rating (0 to 10 scale) (morningglory; Preemergence, Rate 125 g/ha): 0
Morningglory plant response rating (morningglory; Preemergence, Rate 250 g/ha): 0
Morningglory plant response rating (morningglory; Preemergence, Rate 500 g/ha): 0
Morningglory plant response rating (morningglory; Rate 62 g/ha, Postemergence): 5
Plant response rating, Morningglory (morningglory; [4]): 10
Plant response rating, Corn (corn; [1]): 0
Plant response rating, Corn (corn; [2]): 0
Plant response rating, Corn (corn; [3]): 0
Corn plant response rating (0 to 10 scale) (corn; Preemergence, Rate 125 g/ha): 0
Corn plant response rating (corn; Preemergence, Rate 250 g/ha): 0
Corn plant response rating (corn; Preemergence, Rate 500 g/ha): 0
Corn plant response rating (corn; Rate 62 g/ha, Postemergence): 0
Plant response rating, Corn (corn; [4]): 0
Plant response rating, B. signalgrass (surinam grass; [1]): 0
Plant response rating, B. signalgrass (surinam grass; [2]): 0
Plant response rating, B. signalgrass (surinam grass; [3]): 0
B. signalgrass plant response rating (0 to 10 scale, 0 is no effect, 10 is complete control) (surinam grass; Preemergence, Rate 125 g/ha): 0
B. signalgrass plant response rating (surinam grass; Preemergence, Rate 250 g/ha): 0
B. signalgrass plant response rating (surinam grass; Preemergence, Rate 500 g/ha): 0
B. signalgrass plant response rating (surinam grass; Rate 62 g/ha, Postemergence): 0
Plant response rating, B. signalgrass (surinam grass; [4]): 0
Plant response rating, Giant foxtail (giant foxtail; [1]): 2
Plant response rating, Giant foxtail (giant foxtail; [2]): 9
Plant response rating, Giant foxtail (giant foxtail; [3]): 2
Giant foxtail plant response rating (0 to 10 scale) (giant foxtail; Preemergence, Rate 125 g/ha): 8
Giant foxtail plant response rating (giant foxtail; Preemergence, Rate 250 g/ha): 9
Giant foxtail plant response rating (giant foxtail; Preemergence, Rate 500 g/ha): 10
Giant foxtail plant response rating (giant foxtail; Rate 62 g/ha, Postemergence): 1
Plant response rating, Giant foxtail (giant foxtail; [4]): 9
Plant response rating, Cocklebur (cocklebur; [1]): 0
Plant response rating, Cocklebur (cocklebur; [2]): 0
Plant response rating, Cocklebur (cocklebur; [3]): 0
Cocklebur plant response rating (0 to 10 scale) (cocklebur; Preemergence, Rate 125 g/ha): 0
Cocklebur plant response rating (cocklebur; Preemergence, Rate 250 g/ha): 0
Cocklebur plant response rating (cocklebur; Rate 62 g/ha, Postemergence): 0
Plant response rating, Cocklebur (cocklebur; [4]): 6
Plant response rating, Rape (rape; [1]): 0
Plant response rating, Rape (rape; [2]): 0
Plant response rating, Rape (rape; [3]): 0
Rape plant response rating (0 to 10 scale) (rape; Preemergence, Rate 125 g/ha): 0
Rape plant response rating (rape; Preemergence, Rate 250 g/ha): 0
Rape plant response rating (rape; Preemergence, Rate 500 g/ha): 0
Rape plant response rating (rape; Rate 62 g/ha, Postemergence): 0
Plant response rating, Rape (rape; [4]): 0
Plant response rating, Crabgrass (crabgrass; [1]): 1
Plant response rating, Crabgrass (crabgrass; [2]): 2
Plant response rating, Crabgrass (crabgrass; [3]): 1
Crabgrass plant response rating (0 to 10 scale) (crabgrass; Preemergence, Rate 125 g/ha): 7
Crabgrass plant response rating (crabgrass; Preemergence, Rate 250 g/ha): 7
Crabgrass plant response rating (crabgrass; Preemergence, Rate 500 g/ha): 9
Crabgrass plant response rating (crabgrass; Rate 62 g/ha, Postemergence): 0
Plant response rating, Crabgrass (crabgrass; [4]): 7
Plant response rating, Wild oats (wild oat; [1]): 0
Plant response rating, Wild oats (wild oat; [2]): 0
Plant response rating, Wild oats (wild oat; [3]): 0
Wild oats plant response rating (0 to 10 scale) (wild oat; Preemergence, Rate 125 g/ha): 0
Wild oats plant response rating (wild oat; Preemergence, Rate 250 g/ha): 0
Wild oats plant response rating (wild oat; Preemergence, Rate 500 g/ha): 4
Wild oats plant response rating (wild oat; Rate 62 g/ha, Postemergence): 0
Plant response rating, Wild oats (wild oat; [4]): 0
Plant response rating, Ducksalad (0 to 10 scale, 0 is no effect, 10 is complete control) (duck salad; [5]): 0
Ducksalad plant response rating (0 to 10 scale, 0 is no effect, 10 is complete control) (duck salad; [6]): 0
Ducksalad plant response rating (duck salad; [7]): 0
Ducksalad plant response rating (duck salad; [8]): 0
Plant response rating, Barnyardgrass (0 to 10 scale, 0 is no effect, 10 is complete control) (bamyardgrass; [5]): 0
Barnyardgrass plant response rating (0 to 10 scale, 0 is no effect, 10 is complete control) (bamyardgrass; [6]): 0
Barnyardgrass plant response rating (bamyardgrass; [7]): 0
Barnyardgrass plant response rating (bamyardgrass; [8]): 0
Plant response rating, Blackgrass (blackgrass; [1]): 0
Plant response rating, Blackgrass (blackgrass; [2]): 0
Plant response rating, Blackgrass (blackgrass; [3]): 0
Blackgrass plant response rating (0 to 10 scale) (blackgrass; Preemergence, Rate 125 g/ha): 0
Blackgrass plant response rating (blackgrass; Preemergence, Rate 250 g/ha): 0
Blackgrass plant response rating (blackgrass; Preemergence, Rate 500 g/ha): 2
Blackgrass plant response rating (blackgrass; Rate 62 g/ha, Postemergence): 0
Plant response rating, Blackgrass (blackgrass; [4]): 0
Plant response rating, Redroot pigweed (pigweed; [1]): 0
Plant response rating, Redroot pigweed (pigweed; [2]): 0
Plant response rating, Redroot pigweed (pigweed; [3]): 0
Redroot pigweed plant response rating (0 to 10 scale) (pigweed; Preemergence, Rate 125 g/ha): 3
Redroot pigweed plant response rating (pigweed; Preemergence, Rate 250 g/ha): 3
Redroot pigweed plant response rating (pigweed; Preemergence, Rate 500 g/ha): 6
Redroot pigweed plant response rating (pigweed; Rate 62 g/ha, Postemergence): 0
Plant response rating, Redroot pigweed (pigweed; [4]): 5
Plant response rating, Soybean (soybean; [1]): 1
Plant response rating, Soybean (soybean; [2]): 1
Plant response rating, Soybean (soybean; [3]): 0
Soybean plant response rating (0 to 10 scale) (soybean; Preemergence, Rate 125 g/ha): 0
Soybean plant response rating (soybean; Preemergence, Rate 250 g/ha): 0
Soybean plant response rating (soybean; Preemergence, Rate 500 g/ha): 0
Soybean plant response rating (soybean; Rate 62 g/ha, Postemergence): 0
Plant response rating, Soybean (soybean; [4]): 1
Plant response rating, Rice (0 to 10 scale, 0 is no effect, 10 is complete control) (rice; [5]): 0
Rice plant response rating (0 to 10 scale, 0 is no effect, 10 is complete control) (rice; [6]): 0
Rice plant response rating (rice; [7]): 0
Rice plant response rating (rice; [8]): 0
Plant response rating, Velvetleaf (velvetleaf; [1]): 0
Plant response rating, Velvetleaf (velvetleaf; [2]): 0
Plant response rating, Velvetleaf (velvetleaf; [3]): 0
Velvetleaf plant response rating (0 to 10 scale) (velvetleaf; Preemergence, Rate 125 g/ha): 0
Velvetleaf plant response rating (velvetleaf; Preemergence, Rate 250 g/ha): 0
Velvetleaf plant response rating (velvetleaf; Preemergence, Rate 500 g/ha): 0
Velvetleaf plant response rating (velvetleaf; Rate 62 g/ha, Postemergence): 0
Plant response rating, Velvetleaf (velvetleaf; [4]): 3
